Source: ChEMBL document CHEMBL1201862, “PubChem BioAssay data set” (2004)
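48-hour exposure; five concentrations; linearly interpolated endpoints. Here, GI50 denotes the concentration required for 50% inhibition of growth.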 Calls of active or inactive are those of the source. Rule as the data show it: active = GI50 up to about 1.1 µM and inactive = higher.

Legend:
Assay in all cases: NCI anticancer screen, dose series, 48 h
[1] = system: SR
[2] = system: SNB-19
[3] = system: Malme-3M
[4] = system: TK-10
[5] = system: MCF7
[6] = system: Hs-578T
[7] = system: HCT-116
[8] = system: SF-295
[9] = system: MDA-N
[10] = system: DU-145
[11] = system: SN12C
[12] = system: OVCAR-4
[13] = system: 786-0
[14] = system: HT-29
[15] = system: CAKI-1
[16] = system: IGROV-1
[17] = system: MDA-MB-435
[18] = system: HL-60
[19] = system: HCT-15
[20] = system: SK-MEL-28
[21] = system: OVCAR-3
[22] = system: SF-268
[23] = system: SW-620
[24] = system: SF-539
[25] = system: NCI-H522
[26] = system: K562
[27] = system: COLO 205
[28] = system: ACHN
[29] = system: A549
[30] = system: EKVX
[31] = system: NCI-H23
[32] = system: MDA-MB-231
[33] = system: LOX IMVI
[34] = system: SK-MEL-2
[35] = system: HOP-62
[36] = system: SK-OV-3
[37] = system: RXF 393
[38] = system: NCI-H226
[39] = system: M14
[40] = system: SK-MEL-5
[41] = system: U-251
[42] = system: UO-31
[43] = system: SNB-75
[44] = system: PC-3
[45] = system: NCI/ADR-RES
[46] = system: BT-549
[47] = system: UACC-257
[48] = system: A498
[49] = system: OVCAR-8
[50] = system: KM12
[51] = system: HOP-92
[52] = system: MOLT-4
[53] = system: UACC-62
[54] = system: NCI-H460
[55] = system: OVCAR-5
[56] = system: HCC 2998
[57] = system: T47D
[58] = system: CCRF-CEM
[59] = system: RPMI-8226

SMILES: Nc1nc(-c2ccccc2)c(-c2ccccc2)c(-c2nc(N)nc(-c3ccccc3)c2-c2ccccc2)n1
- GI50 [1]: > 100 µM (inactive)
- GI50 [2]: > 100 µM (inactive)
- GI50 [3]: > 100 µM (inactive)
- GI50 [4]: > 100 µM (inactive)
- GI50 [5]: 49.4 µM (inactive)
- GI50 [6]: > 100 µM (inactive)
- GI50 [7]: > 100 µM (inactive)
- GI50 [8]: 78.9 µM (inactive)
- GI50 [9]: 75.7 µM (inactive)
- GI50 [10]: > 100 µM (inactive)
- GI50 [11]: > 100 µM (inactive)
- GI50 [12]: 91 µM (inactive)
- GI50 [13]: > 100 µM (inactive)
- GI50 [14]: 62.1 µM (inactive)
- GI50 [15]: > 100 µM (inactive)
- GI50 [16]: > 100 µM (inactive)
- GI50 [17]: > 100 µM (inactive)
- GI50 [18]: > 100 µM (inactive)
- GI50 [19]: > 100 µM
- GI50 [20]: > 100 µM (inactive)
- GI50 [21]: 83.2 µM (inactive)
- GI50 [22]: > 100 µM (inactive)
- GI50 [23]: > 100 µM (inactive)
- GI50 [24]: > 100 µM (inactive)
- GI50 [25]: 57.9 µM (inactive)
- GI50 [26]: > 100 µM (inactive)
- GI50 [27]: > 100 µM (inactive)
- GI50 [28]: > 100 µM (inactive)
- GI50 [29]: > 100 µM (inactive)
- GI50 [30]: 63.7 µM (inactive)
- GI50 [31]: > 100 µM (inactive)
- GI50 [32]: > 100 µM (inactive)
- GI50 [33]: > 100 µM (inactive)
- GI50 [34]: > 100 µM (inactive)
- GI50 [35]: > 100 µM (inactive)
- GI50 [36]: > 100 µM (inactive)
- GI50 [37]: 94 µM (inactive)
- GI50 [38]: > 100 µM (inactive)
- GI50 [39]: > 100 µM (inactive)
- GI50 [40]: > 100 µM (inactive)
- GI50 [41]: > 100 µM (inactive)
- GI50 [42]: > 100 µM (inactive)
- GI50 [43]: 88.7 µM (inactive)
- GI50 [44]: > 100 µM (inactive)
- GI50 [45]: > 100 µM (inactive)
- GI50 [46]: > 100 µM (inactive)
- GI50 [47]: > 100 µM (inactive)
- GI50 [48]: 75.5 µM (inactive)
- GI50 [49]: > 100 µM (inactive)
- GI50 [50]: > 100 µM (inactive)
- GI50 [51]: > 100 µM (inactive)
- GI50 [52]: > 100 µM (inactive)
- GI50 [53]: 85.3 µM (inactive)
- GI50 [54]: 74.3 µM (inactive)
- GI50 [55]: > 100 µM (inactive)
- GI50 [56]: 49 µM (inactive)
- GI50 [57]: 49.7 µM (inactive)

SMILES: CC(C)=CCC[C@@H](C)C1=C(O)C(O)C(C)=C2N=C(c3ccccc3)C(=O)OC21 (stereo partly specified)
- GI50 [1]: > 9.84 µM (inactive)
- GI50 [2]: 3.33 µM (inactive)
- GI50 [3]: 1.14 µM (inactive)
- GI50 [4]: 1.9 µM (inactive)
- GI50 [5]: 1.21 µM (inactive)
- GI50 [6]: 1.87 µM (inactive)
- GI50 [7]: 4.03 µM (inactive)
- GI50 [8]: 2.42 µM (inactive)
- GI50 [9]: 7.57 µM (inactive)
- GI50 [10]: 4.36 µM (inactive)
- GI50 [11]: 1.43 µM (inactive)
- GI50 [12]: 4.41 µM (inactive)
- GI50 [13]: 7.8 µM (inactive)
- GI50 [14]: 6.81 µM (inactive)
- GI50 [58]: 2.4 µM (inactive)
- GI50 [15]: 2.39 µM (inactive)
- GI50 [16]: 1.22 µM (inactive)
- GI50 [17]: 3.18 µM (inactive)
- GI50 [18]: 0.521 µM (active)
- GI50 [19]: 2.31 µM
- GI50 [20]: 3.07 µM (inactive)
- GI50 [21]: 1.24 µM (inactive)
- GI50 [22]: 1.53 µM (inactive)
- GI50 [23]: 3.16 µM (inactive)
- GI50 [24]: 4.33 µM (inactive)
- GI50 [25]: 0.624 µM (active)
- GI50 [26]: 1.24 µM (inactive)
- GI50 [27]: 9.38 µM (inactive)
- GI50 [28]: 2.16 µM (inactive)
- GI50 [29]: 2.65 µM (inactive)
- GI50 [30]: 8.85 µM (inactive)
- GI50 [31]: 0.726 µM (active)
- GI50 [32]: 2.52 µM (inactive)
- GI50 [33]: 4.71 µM (inactive)
- GI50 [34]: 1.61 µM (inactive)
- GI50 [35]: 3.71 µM (inactive)
- GI50 [36]: 1.12 µM (inactive)
- GI50 [37]: 1.35 µM (inactive)
- GI50 [38]: 2.88 µM (inactive)
- GI50 [39]: 4.71 µM (inactive)
- GI50 [40]: 1.29 µM (inactive)
- GI50 [41]: 1.57 µM (inactive)
- GI50 [42]: 5.22 µM (inactive)
- GI50 [43]: 3.7 µM (inactive)
- GI50 [44]: 8.36 µM (inactive)
- GI50 [45]: 0.794 µM (active)
- GI50 [46]: 2.15 µM (inactive)
- GI50 [47]: 2.88 µM (inactive)
- GI50 [48]: 2.81 µM (inactive)
- GI50 [49]: 0.933 µM (active)
- GI50 [50]: 4.44 µM (inactive)
- GI50 [51]: 0.723 µM (active)
- GI50 [52]: > 7.41 µM (inactive)
- GI50 [53]: 1.07 µM (active)
- GI50 [54]: 1.19 µM (inactive)
- GI50 [55]: 18.1 µM (inactive)
- GI50 [56]: 6.62 µM (inactive)
- GI50 [57]: 1.21 µM (inactive)

SMILES: CCOC(=O)C(NC(=O)Nc1ccccc1)(Nc1cccc(Cl)c1)C(F)(F)F (stereo unspecified)
- GI50 [1]: > 100 µM (inactive)
- GI50 [2]: > 100 µM (inactive)
- GI50 [3]: > 100 µM (inactive)
- GI50 [4]: > 100 µM (inactive)
- GI50 [5]: > 100 µM (inactive)
- GI50 [6]: 24.3 µM (inactive)
- GI50 [7]: > 100 µM (inactive)
- GI50 [9]: > 100 µM (inactive)
- GI50 [10]: > 100 µM (inactive)
- GI50 [11]: > 100 µM (inactive)
- GI50 [13]: > 100 µM (inactive)
- GI50 [59]: > 100 µM (inactive)
- GI50 [14]: > 100 µM (inactive)
- GI50 [58]: 45.1 µM (inactive)
- GI50 [16]: > 100 µM (inactive)
- GI50 [17]: > 100 µM (inactive)
- GI50 [18]: 42 µM (inactive)
- GI50 [19]: > 100 µM
- GI50 [20]: > 100 µM (inactive)
- GI50 [21]: > 100 µM (inactive)
- GI50 [22]: > 100 µM (inactive)
- GI50 [23]: > 100 µM (inactive)
- GI50 [24]: > 100 µM (inactive)
- GI50 [25]: 92.9 µM (inactive)
- GI50 [26]: > 100 µM (inactive)
- GI50 [27]: > 100 µM (inactive)
- GI50 [28]: > 100 µM (inactive)
- GI50 [29]: > 100 µM (inactive)
- GI50 [30]: > 100 µM (inactive)
- GI50 [31]: > 100 µM (inactive)
- GI50 [32]: > 100 µM (inactive)
- GI50 [33]: > 100 µM (inactive)
- GI50 [34]: > 100 µM (inactive)
- GI50 [35]: > 100 µM (inactive)
- GI50 [36]: > 100 µM (inactive)
- GI50 [37]: 20.7 µM (inactive)
- GI50 [38]: > 100 µM (inactive)
- GI50 [39]: > 100 µM (inactive)
- GI50 [40]: > 100 µM (inactive)
- GI50 [41]: > 100 µM (inactive)
- GI50 [42]: > 100 µM (inactive)
- GI50 [43]: 46.7 µM (inactive)
- GI50 [44]: > 100 µM (inactive)
- GI50 [45]: > 100 µM (inactive)
- GI50 [46]: > 100 µM (inactive)
- GI50 [47]: > 100 µM (inactive)
- GI50 [48]: > 66.4 µM (inactive)
- GI50 [49]: > 100 µM (inactive)
- GI50 [50]: > 100 µM (inactive)
- GI50 [51]: 39.8 µM (inactive)
- GI50 [52]: 98.9 µM (inactive)
- GI50 [53]: > 100 µM (inactive)
- GI50 [54]: > 100 µM (inactive)
- GI50 [55]: > 100 µM (inactive)
- GI50 [56]: > 100 µM (inactive)
- GI50 [57]: > 100 µM (inactive)
